Assay results from patent US6337317B1, “Antimicrobial peptides and methods of use thereof” (priority 2000, dated 2002).
Where a SMILES comes first, the peptide text is derived from it.

Assays:
E. coli DC2 [1] = assay: Cytoplasmic membrane depolarization, diSC35 assay; type: cell-based, Escherichia coli; details: 0.25 μg/ml peptide
Method: The arrowhead indicates the time at which 0.25 μg/ml peptide was added. PV5: SEQ ID NO:11; PV7: SEQ ID NO:4; and PV8: SEQ ID NO:3.
The cytoplasmic membrane depolarization activity of the peptides was determined (Wu and Hancock (1999) J. Biol. Chem. 274:29-35) using the membrane potential sensitive dye 3,3-dipropylthiacarbocyanine diSC35 (28) and E. coli DC2. Bacterial cells in mid-log phase were centrifuged, washed in 5 mM HEPES, pH 7.8, and resuspended in the same buffer to an OD600 of 0.05. A stock solution of diSC35 was added to a final concentration of 0.4 μM and quenching was allowed to occur at room temperature for 20-30 min. Then KCl was added to the cell suspension to a final concentration of 100 mM to equilibrate the cytoplasmic and external K^+ concentrations. A 2-mL cell suspension was placed in a 1 cm cuvette and the desired concentration of tested peptide was added. Changes in fluorescence due to the disruption of the membrane potential in the cytoplasmic membrane were continuously recorded using a Perkin-Elmer model 650-10S spectrofluorimeter at an excitation wavelength of 622 nm and an emission wavelength of 670 nm. The concentration of peptide leading to a 50% of maximal increase in NPN uptake was recorded as the P50.

[2] = tested on: E. coli 0111:B4 LPS induced production of TNF-α in RAW macrophages; assay: Reduction of LPS-induced TNF-α in RAW 264.7 macrophages (ELISA); type: cell-based, murine; details: peptide 20 μg/ml; LPS 100 ng/ml; RAW 264.7; 6 hours
Method: The ability of invention peptides to reduce LPS-induced tumor necrosis factor (TNF) production was tested in an in vitro assay. The murine macrophage cell line RAW 264.7 was obtained from American Type Culture Collection (Manassas, Va.) and grown in DMEM medium supplemented with 10% fetal calf serum. The cells were plated at a density of 10^6 cells/well in 24 well plates, incubated overnight, then washed with fresh medium. E. coli 0111 :B4 (100 ng/ml) was added at time 0 to RAW macrophages. Invention peptides […]/m were added at time 0, 30 and 60 minutes and the cells were stimulated for 6 hours. Levels of TNF and interleukin-6 (IL-6) were measured after 6 hours.

E. coli KF130 = type: cell-based, Escherichia coli
Method: (§1) The biological activity of the peptides can be determined by standard methods known to those of skill in the art, such as a “minimal inhibitory concentration” (MIC) assay (see Wu and Hancock (1999) J. Biol Chem. 274:29-35 and Examples section). A MIC assay allows the determination of the lowest concentration of peptide that inhibits the multiplication and growth of mircoorganisms. Changes in the microorganism population are assessed by measuring the optical density (OD) of the population in broth or medium. Peptide MIC's can be determined for a variety of micoorganisms under a variety of conditions. Another assay for the biological activity of the peptides is a “fractional inhibitory concentration” (FIC) assay. This assay is especially useful for determining synergistic effects between the peptides of the invention, and between invention peptides and other compounds such as known antibiotics. A FIC assay employs the strategy of a MIC assay with additional variable(s), e.g., known antibiotics. […] The FIC is calculated by looking at the impact of an antibiotic on the MIC of the peptide and the reciprocal relationship. […] As used herein, FIC can be determined as follows: […]
(§2) MIC Assay p The minimum inhibitory concentrations of (MIC) of several invention peptides were determined using methods described elsewhere (Wu and Hancock, (1999) J. Biol Chem. 274:29-35). […]

E. coli DC2 [3] = type: cell-based, Escherichia coli; details: E. coli DC2 (outer membrane deficient mutant)
Method: as §1, §2

## CC(C)[C@@H]1NC(=O)[C@H](CCCNC(=N)N)NC(=O)[C@H](Cc2ccccc2)NC(=O)[C@@H](NC(=O)[C@H](Cc2c[nH]c3ccccc23)NC(=O)[C@H](CCCNC(=N)N)NC(=O)[C@@H](N)CCCNC(=N)N)CSSC[C@@H](C(=O)N[C@@H](CCCNC(=N)N)C(N)=O)NC(=O)[C@H](CCCCN)NC(=O)[C@H](CCCNC(=N)N)NC(=O)[C@H](Cc2ccc(O)cc2)NC(=O)[C@@H]2CSSC[C@H](NC1=O)C(=O)N[C@@H](Cc1ccc(O)cc1)C(=O)N[C@@H](CCCNC(=N)N)C(=O)NCC(=O)N[C@@H](Cc1ccccc1)C(=O)N2 [Polyphemusin I] (HELM PEPTIDE1{R.R.W.C.F.R.V.C.Y.R.G.F.C.Y.R.K.C.R.[am]}$PEPTIDE1,PEPTIDE1,4:R3-17:R3|PEPTIDE1,PEPTIDE1,8:R3-13:R3$$$V2.0; N-terminus and C-terminus assumed)
E. coli DC2 [1]
  time to dissipation of the cytoplasmic membrane potential: ≤ 5 min
[2]
  Inhibition of TNF-α (%): 83 ± 6%
E. coli KF130
  MIC: 0.125 µg/mL
E. coli DC2 [3]
  MIC: 0.125 µg/mL
